pIC50: −log10 of the molar value. Where two headings read alike, the source gives them in different places.
Columns and labels:
CYP1A2 = biological target: T1, CYP1A2 (Homo sapiens, UniProt P05177); assay: Drug-drug interaction evaluation: CYP inhibition in human liver microsomes (cocktail method)
T1 sequence (P05177 1-516): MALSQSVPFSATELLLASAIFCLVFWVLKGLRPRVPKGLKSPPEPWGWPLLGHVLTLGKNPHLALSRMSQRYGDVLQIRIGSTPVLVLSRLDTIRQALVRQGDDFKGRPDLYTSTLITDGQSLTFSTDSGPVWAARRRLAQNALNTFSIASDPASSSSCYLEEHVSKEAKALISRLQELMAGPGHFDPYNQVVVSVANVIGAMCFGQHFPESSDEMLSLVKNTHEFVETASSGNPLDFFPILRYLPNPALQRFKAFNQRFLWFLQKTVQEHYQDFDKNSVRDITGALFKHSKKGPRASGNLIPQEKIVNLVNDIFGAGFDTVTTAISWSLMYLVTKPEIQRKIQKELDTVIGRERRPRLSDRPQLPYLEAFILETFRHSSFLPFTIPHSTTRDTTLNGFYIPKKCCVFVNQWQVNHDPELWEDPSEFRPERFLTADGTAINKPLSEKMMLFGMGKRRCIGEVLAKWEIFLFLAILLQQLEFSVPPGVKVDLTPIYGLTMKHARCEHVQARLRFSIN
Procedure: (§1) The cocktail method using specific probe substrates for CYP1A2, CYP2C9, CYP2C19, CYP2D6 and CYP3A was used to evaluate the inhibitory effect of the compounds on the activity of human liver microsomal cytochrome P450 isoenzymes (CYP1A2, CYP2C9, CYP2C19, CYP2D6 and CYP3A).
(§2) Human liver microsomes, probe substrates, positive control inhibitors, and reduced nicotinamide adenine dinucleotide phosphate (NADPH).
(§3) To the corresponding wells of a reaction plate, 20 µL of substrate solution was added; to blank wells, 20 µL of potassium phosphate buffer was added.
(§4) To the corresponding wells, 2 µL of test compound and positive control working solution were added; to inhibitor-free and blank wells, 2 µL of solvent was added.
(§5) Human liver microsome working solution was prepared, and 158 µL of human liver microsome working solution was added to each well of the reaction plate.
(§6) The plate was pre-incubated at 37.0°C for 10 minutes.
(§7) To start the reaction, 20 µL of NADPH cofactor working solution was added to the reaction plate.
(§8) After incubation in a 37.0°C water bath with mixing for 10 minutes, 400 µL of stop solution was added to terminate the reaction.
(§9) The sample plate was centrifuged at 4000 rpm for 20 minutes.
(§10) 200 µL of supernatant was taken and mixed with 100 µL of pure water as diluent, and the plate was shaken to mix well.
(§11) Analysis was performed by liquid chromatography-tandem mass spectrometry (LC-MS/MS).
(§12) Using the percentage of remaining activity as the ordinate and the test compound concentration as the abscissa, a non-linear regression analysis was performed with a three-parameter or four-parameter model using XL fit software to calculate the IC50 value.
(§13) y = (max)/(1 + (((x)/(IC50)))^−hillslope) [formula]
(§14) y = min + (max−min)/(1 + (((x)/(IC50)))^−hillslope) [formula]
(§15) max = maximum enzyme activity; min = minimum enzyme activity; x = concentration of test compound or positive control inhibitor; y = enzyme activity at the corresponding concentration; hillslope = slope; IC50 = half-maximal inhibitory concentration. The four-parameter equation was used when the minimum enzyme activity was within ±10%; otherwise the three-parameter equation was used.

CYP2C19 = CYP2C19 (Homo sapiens, UniProt P33261); assay: as above
Procedure: as §1, §2, §3, §4, §5, §6, §7, §8, §9, §10, §11, §12, §13, §14, §15

CYP2C9 = CYP2C9 (Homo sapiens, UniProt P11712); assay: as above
Procedure: as §1, §2, §3, §4, §5, §6, §7, §8, §9, §10, §11, §12, §13, §14, §15

CYP2D6 = CYP2D6 (Homo sapiens, UniProt P10635); assay: as above
Procedure: as §1, §2, §3, §4, §5, §6, §7, §8, §9, §10, §11, §12, §13, §14, §15

CYP3A4 = CYP3A4 (Homo sapiens, UniProt P08684); assay: as above
Procedure: as §1, §2, §3, §4, §5, §6, §7, §8, §9, §10, §11, §12, §13, §14, §15

hERG potassium channel = biological target: T2, hERG potassium channel (Homo sapiens, UniProt Q12809); assay: Automated patch clamp (Qpatch) assay for hERG potassium channel activity; format: cell-based
T2 construct: expressed in transfected cells; host or cells: CHO-hERG
Procedure: Assay Example 5: Automated patch clamp (Qpatch) assay for hERG potassium channel activity
CHO-hERG cells were cultured in 175 cm^2 culture flasks. When the cell density reached 60-80%, the culture medium was removed, the cells were washed once with 7 mL of PBS, and then 3 mL of cell dissociation reagent was added for digestion. After complete digestion, 7 mL of culture medium was added to neutralize, and the cells were centrifuged. The supernatant was aspirated, and the cells were resuspended in 5 mL of culture medium to achieve a cell density of 2~5 × 10^6/mL.
The compound stock solution was diluted with DMSO. 10 µL of compound stock solution was added to 20 µL of DMSO solution, followed by 3-fold serial dilution to obtain 6 DMSO concentrations. 4 µL of the compound solution at each of the six DMSO concentrations was added to 396 µL of extracellular solution to achieve a 100-fold dilution to obtain six intermediate concentrations. Then, 80 µL of the compound solution at each of the six intermediate concentrations was added to 320 µL of extracellular solution to achieve a 5-fold dilution to the desired final test concentrations. […]
The electrophysiological process was recorded. […] This voltage stimulation was applied every 15 seconds, and recorded for 2 minutes. The extracellular solution was then given, and recorded for 5 minutes. […]
The assay data were analyzed using GraphPad Prism 5.0 software. […]

Sequence of CYP3A4 (P08684 2-503): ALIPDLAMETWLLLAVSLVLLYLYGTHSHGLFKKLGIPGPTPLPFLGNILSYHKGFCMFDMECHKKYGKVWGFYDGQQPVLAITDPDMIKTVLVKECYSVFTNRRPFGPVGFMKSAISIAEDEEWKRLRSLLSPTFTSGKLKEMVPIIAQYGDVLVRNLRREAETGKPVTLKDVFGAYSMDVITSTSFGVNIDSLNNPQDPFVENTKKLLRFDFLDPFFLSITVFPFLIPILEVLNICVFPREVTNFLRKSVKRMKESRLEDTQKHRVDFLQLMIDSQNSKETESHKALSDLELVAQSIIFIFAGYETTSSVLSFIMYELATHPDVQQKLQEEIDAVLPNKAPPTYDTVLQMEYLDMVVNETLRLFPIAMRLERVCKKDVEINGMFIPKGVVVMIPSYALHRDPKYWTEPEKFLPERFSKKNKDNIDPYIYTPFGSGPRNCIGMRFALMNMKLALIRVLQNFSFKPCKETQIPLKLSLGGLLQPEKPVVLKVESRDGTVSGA
T2 sequence (Q12809 whole entry): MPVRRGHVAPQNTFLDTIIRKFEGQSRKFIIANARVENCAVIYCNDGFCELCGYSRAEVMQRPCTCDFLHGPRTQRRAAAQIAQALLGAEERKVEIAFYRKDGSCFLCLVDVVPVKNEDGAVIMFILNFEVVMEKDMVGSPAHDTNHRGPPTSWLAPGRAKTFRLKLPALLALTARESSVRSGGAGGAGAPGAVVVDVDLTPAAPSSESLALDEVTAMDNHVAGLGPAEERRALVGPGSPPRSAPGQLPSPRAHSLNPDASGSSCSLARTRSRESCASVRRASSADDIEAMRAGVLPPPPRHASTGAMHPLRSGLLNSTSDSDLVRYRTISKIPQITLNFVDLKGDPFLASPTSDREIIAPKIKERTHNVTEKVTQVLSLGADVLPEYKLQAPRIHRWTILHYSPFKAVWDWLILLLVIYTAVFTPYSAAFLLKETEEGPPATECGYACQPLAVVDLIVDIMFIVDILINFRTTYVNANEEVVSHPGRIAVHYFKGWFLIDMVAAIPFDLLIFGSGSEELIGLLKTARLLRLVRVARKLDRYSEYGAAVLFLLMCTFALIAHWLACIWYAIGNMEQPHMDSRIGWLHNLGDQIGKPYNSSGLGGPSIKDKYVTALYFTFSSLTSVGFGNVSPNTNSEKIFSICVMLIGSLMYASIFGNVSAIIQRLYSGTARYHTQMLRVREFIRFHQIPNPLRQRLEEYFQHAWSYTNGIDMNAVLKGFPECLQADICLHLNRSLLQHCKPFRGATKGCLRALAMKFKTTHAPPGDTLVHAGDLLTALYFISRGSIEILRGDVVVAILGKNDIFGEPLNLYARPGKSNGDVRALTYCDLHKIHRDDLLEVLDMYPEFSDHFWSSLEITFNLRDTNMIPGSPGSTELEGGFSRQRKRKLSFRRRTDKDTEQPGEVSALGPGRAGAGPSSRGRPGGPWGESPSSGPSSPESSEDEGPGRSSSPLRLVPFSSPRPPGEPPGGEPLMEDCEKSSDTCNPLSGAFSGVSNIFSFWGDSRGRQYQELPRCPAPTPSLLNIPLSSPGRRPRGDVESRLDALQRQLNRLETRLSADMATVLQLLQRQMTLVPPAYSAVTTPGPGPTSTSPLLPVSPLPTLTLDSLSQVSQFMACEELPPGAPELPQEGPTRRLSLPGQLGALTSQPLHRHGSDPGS
Sequence of CYP2D6 (P10635 whole entry): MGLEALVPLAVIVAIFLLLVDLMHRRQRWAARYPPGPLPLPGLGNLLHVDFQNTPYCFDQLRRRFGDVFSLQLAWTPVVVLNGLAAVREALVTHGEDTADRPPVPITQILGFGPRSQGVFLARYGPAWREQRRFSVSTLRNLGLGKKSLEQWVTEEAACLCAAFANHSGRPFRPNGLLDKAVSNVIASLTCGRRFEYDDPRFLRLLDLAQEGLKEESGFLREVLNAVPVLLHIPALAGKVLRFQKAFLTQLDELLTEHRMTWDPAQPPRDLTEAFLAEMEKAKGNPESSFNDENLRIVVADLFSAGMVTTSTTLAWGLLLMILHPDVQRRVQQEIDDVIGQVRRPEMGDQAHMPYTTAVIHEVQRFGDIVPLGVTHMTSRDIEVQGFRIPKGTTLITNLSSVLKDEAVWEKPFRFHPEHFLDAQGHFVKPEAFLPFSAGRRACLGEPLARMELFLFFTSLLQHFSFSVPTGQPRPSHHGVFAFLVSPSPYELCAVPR
Sequence of CYP2C9 (P11712 whole entry): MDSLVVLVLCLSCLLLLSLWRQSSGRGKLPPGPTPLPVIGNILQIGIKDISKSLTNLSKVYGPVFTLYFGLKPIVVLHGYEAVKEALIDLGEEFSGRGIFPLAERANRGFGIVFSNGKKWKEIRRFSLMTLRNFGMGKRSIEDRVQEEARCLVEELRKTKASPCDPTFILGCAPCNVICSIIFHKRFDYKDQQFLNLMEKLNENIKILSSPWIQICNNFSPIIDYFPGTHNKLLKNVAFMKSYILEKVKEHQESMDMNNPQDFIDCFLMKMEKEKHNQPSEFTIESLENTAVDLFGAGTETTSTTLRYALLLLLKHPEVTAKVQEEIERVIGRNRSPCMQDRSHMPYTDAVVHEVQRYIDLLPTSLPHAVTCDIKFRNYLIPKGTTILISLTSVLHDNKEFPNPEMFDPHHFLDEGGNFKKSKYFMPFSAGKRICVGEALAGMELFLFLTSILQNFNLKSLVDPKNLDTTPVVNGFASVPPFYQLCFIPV
Sequence of CYP2C19 (P33261 whole entry): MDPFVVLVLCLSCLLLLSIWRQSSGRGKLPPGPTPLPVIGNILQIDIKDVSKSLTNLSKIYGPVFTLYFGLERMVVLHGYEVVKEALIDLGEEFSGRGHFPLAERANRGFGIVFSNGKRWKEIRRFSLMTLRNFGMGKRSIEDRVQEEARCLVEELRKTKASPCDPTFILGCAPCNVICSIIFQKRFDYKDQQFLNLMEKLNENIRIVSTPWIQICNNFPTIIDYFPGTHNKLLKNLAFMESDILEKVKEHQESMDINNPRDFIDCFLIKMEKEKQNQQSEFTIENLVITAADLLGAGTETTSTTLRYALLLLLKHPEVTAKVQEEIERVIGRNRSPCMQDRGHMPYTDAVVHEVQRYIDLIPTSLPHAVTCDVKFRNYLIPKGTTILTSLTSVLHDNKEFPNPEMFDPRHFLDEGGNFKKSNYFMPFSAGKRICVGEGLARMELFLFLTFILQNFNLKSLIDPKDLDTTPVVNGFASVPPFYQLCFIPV

Question: Cc1nc(Nc2ccc3c(C)c(NC(=O)CC(C)(C)C)n(C)c3c2)ccc1F [Compound 41] was tested. Which pIC50 (CYP1A2) did it give?
Answer: 4.96

Question: What about the pIC50 (CYP2C19) of the same compound?
Answer: < 4.30

Question: What about the pIC50 (CYP2C9) of the same compound?
Answer: 4.96

Question: And the pIC50 (CYP2D6)?
Answer: < 4.30

Question: And the pIC50 (CYP3A4)?
Answer: < 4.30

Question: With Cc1c(NC(=O)CC(C)(C)C)n(C)c2cc(Nc3ccc(C(F)(F)F)cc3)ccc12 [Compound 5] as the compound, how does the pIC50 (CYP3A4) read?
Answer: < 4.30

Question: What about the pIC50 (hERG potassium channel) of the same compound?
Answer: < 4.40

Question: Cc1c(NC(=O)CC(C)(C)C)n(C)c2cc(Nc3ccc(F)cc3)ccc12 [Compound 1] was tested. Which pIC50 (hERG potassium channel; CHO-hERG cells, Qpatch, highest test concentration 40.00 µM, read-out: IC50) did it give?
Answer: < 4.40
